In patent US20250197425A1, “2,6,9-TRISUBSTITUTED PURINES” (ASTRAZENECA AB, priority 2022, published 2025):

Assays:
CDK2:CCNE1 = CDK2:CCNE1 (Homo sapiens (Human), UniProt P24941); experiment: NanoBRET assay in MCF-7 cells, CDK2; assay type: cell-based; conditions: transfected MCF-7 cells, 2 hours, n = 1 or average
How it was run: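 In live MCF-7 cells, compound added followed by NanoBRET TE Tracer K-9 (stock 200 μM) for CDK2, 2 h at 37° C, 5% CO2.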

CDK4:CCND1 = CDK4:CCND1 (Homo sapiens (Human), UniProt P11802); experiment: NanoBRET assay in MCF-7 cells, CDK4; assay type: cell-based; conditions: NanoBRET, transfected MCF-7 cells, 2 hours; n = 1 or average; read-out: CDK4 IC50
CDK4:CCND1, sequence (P11802 whole entry): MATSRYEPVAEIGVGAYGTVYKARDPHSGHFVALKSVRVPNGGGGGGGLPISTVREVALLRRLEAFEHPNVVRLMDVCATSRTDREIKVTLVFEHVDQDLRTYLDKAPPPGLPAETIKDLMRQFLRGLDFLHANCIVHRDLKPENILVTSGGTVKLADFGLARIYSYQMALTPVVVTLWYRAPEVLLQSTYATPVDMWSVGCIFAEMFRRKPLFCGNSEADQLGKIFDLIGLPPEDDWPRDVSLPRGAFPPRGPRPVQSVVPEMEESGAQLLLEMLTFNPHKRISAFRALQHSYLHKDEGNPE
CDK4:CCND1, sequence (P24385 whole entry partner): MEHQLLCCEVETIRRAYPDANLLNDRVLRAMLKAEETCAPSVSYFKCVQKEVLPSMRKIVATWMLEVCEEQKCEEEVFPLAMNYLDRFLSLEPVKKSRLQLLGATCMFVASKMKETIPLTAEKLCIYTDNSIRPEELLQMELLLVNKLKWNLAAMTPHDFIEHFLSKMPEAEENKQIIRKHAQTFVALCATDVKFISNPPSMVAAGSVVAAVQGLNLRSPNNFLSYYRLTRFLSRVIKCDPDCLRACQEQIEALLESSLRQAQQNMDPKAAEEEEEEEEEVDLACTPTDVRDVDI
How it was run: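 Intracellular target engagement was measured by NanoBRET ratio (460 nm/610 nm) in live MCF-7 cells transiently carrying CDK4:CCND1 (Tracer K-7, 100 μM stock) or CDK1:CCNB1 (Tracer K-9, 400 μM stock).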

[1] = test system: NPM phosphorylation (Thr199, CDK2-cyclin E complex); experiment: NPM phosphorylation imaging assay in MCF-7 cells; assay type: cell-based; conditions: Homo sapiens, MCF7, 2 h, 4N DNA cells
How it was run: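 MCF-7 cells were fixed, permeabilised and immunostained, then imaged for phospho-NPM (Thr199), a CDK2-cyclin E site. Analysis was gated on 4N-DNA cells by Hoechst staining. Signals were normalised to controls and fitted for IC50.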

MCF-7 cells = experiment: Cellular proliferation EdU assay, MCF-7; assay type: cell-based; conditions: Homo sapiens, MCF7, 48 h, EdU assay, two days; read-out: MCF-7 IC50
How it was run: (§1)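 MCF-7 (800 cells/well) and OVCAR3 (1200 cells/well) in RPMI with 10% FBS exposed to compounds for two days at 37 °C.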

OVCAR3 cells = experiment: Cellular proliferation EdU assay, OVCAR3; assay type: cell-based, human; conditions: Homo sapiens, OVCAR-3, 48 h, EdU assay, two days; read-out: OVCAR3 IC50
How it was run: as §1

SKOV3 cells = experiment: Cell proliferation CyQUANT assay, SKOV3; assay type: cell-based; conditions: Homo sapiens, SK-OV-3, 168 h; CyQUANT cell counts, 7 days
Method: An imaging-based assay was used to investigate changes in cell number in OVCAR3 cells (CCNE1-amplified ovarian cancer cell line) and SKOV3 cells (non-amplified ovarian cancer cell line) treated with test compounds.
Cells were plated in 384 well plates (Perkin-Elmer 6057300) in RPMI-1640/10% FBS/1× L-Glu at 500 cells per well in 30 μL and incubated with test compound at 37° C. and 5% CO2 for 7 days. Cells were then stained using the CyQuant Direct Cell Proliferation Assay Kit (Thermo Cat #C7026) in accordance with the kit protocol. The stained cells were imaged using an Operetta high content imager to generate cell counts and IC50 values were calculated relative to DMSO controls.

| IC50 (CDK2:CCNE1) [nM] | IC50 (CDK4:CCND1) [µM] | IC50 [1] [nM] | IC50 (MCF-7 cells) [nM] | IC50 (OVCAR3 cells) [nM] | IC50 (SKOV3 cells) [µM] | Compound |
| --- | --- | --- | --- | --- | --- | --- |
| 43 | > 29.7 | 241 | 1430 | 616 | 10.7 | CCNS(=O)(=O)N1CC[C@H](Nc2nc(N[C@@H](CC)[C@@H](C)O)nc3c2ncn3C)C1 [Example 53, (S)—N-ethyl-3-((2-(((2R,3S)-2-hydroxypentan-3-yl)amino)-9-methyl-9H-purin-6-yl)amino)pyrrolidine-1-sulfonamide] |
| 27 | 5.8 | 133 | 538 | 276 | 4.04 | CCNS(=O)(=O)N1CC[C@H](Nc2nc(N[C@@H](CO)C3CC3)nc3c2ncn3C)C1 [Example 19, (S)-3-((2-(((R)-1-cyclopropyl-2-hydroxyethyl)amino)-9-methyl-9H-purin-6-yl)amino)-N-ethylpyrrolidine-1-sulfonamide] |
| 9 | 1.2 | 11 |  | 44 | 1.16 | CCn1cnc2c(N[C@@H]3CN(S(=O)(=O)c4ncc[nH]4)C[C@H]3F)nc(N[C@@H](CO)C3CC3)nc21 (relative stereo) [Example 17, (R)-2-((6-(((3R*,4R*)-1-((1H-imidazol-2-yl)sulfonyl)-4-fluoropyrrolidin-3-yl)amino)-9-ethyl-9H-purin-2-yl)amino)-2-cyclopropylethan-1-ol] |
| 18 | 12.8 | 233 | 969 | 457 |  | CCn1cnc2c(N[C@H]3CCN(S(=O)(=O)NC)C3)nc(-c3cccc4c3CC[C@]4(C)O)nc21 (relative stereo) [Example 3, (S)-3-((9-ethyl-2-((R*)-1-hydroxy-1-methyl-2,3-dihydro-1H-inden-4-yl)-9H-purin-6-yl)amino)-N-methylpyrrolidine-1-sulfonamide] |
